The nature of experiment [1]: Inhibition of platelet CRTAase assessed as inhibition of platelet aggregation at 50 uM by spectrophotometry.
In experiment [2] the test system is Rattus norvegicus. The experiment in a line: Inhibition of COX1 activity in TMPD/arachidonic acid-stimulated blood of Sprague-Dawley rat at 160.2 umol/kg, po after 24 hrs by ELISA relative to control. It counts as functional. Background: In an ELISA, binding on a coated surface is turned into a signal by an enzyme label.
The subject of experiment [3] is Rattus norvegicus. The experiment in a line: Inhibition of TxB2 production in arachidonic acid-stimulated blood of Sprague-Dawley rat assessed per mg of protein at 160.2 umol/kg, po, measured after 24 hrs by ELISA (reference value: 85.4 pg/mg of protein). The format is functional.
Experiment [4] can be described thus: (§1) Antiplatelet activity in human platelet rich plasma assessed as inhibition of arachidonic acid-induced aggregation preincubated for 10 mins before arachidonic acid challenge by aggregometry method. It counts as functional, cell-free.
Experiment [5] concerns Rattus norvegicus. Description: Inhibition of arachidonic acid-induced aggregation in Sprague-Dawley rat blood at 50.6 umol/kg, po treated for 24 hrs before arachidonic acid challenge by aggregometry method. It counts as functional.
A further experiment deals with PBMC. Description: Inhibition of LPS-induced iNOS expression in Sprague-Dawley rat PBMC at 160.2 umol/kg, po for 5 days before LPS challenge by Western blot analysis. The format is functional, organism-based.
Experiment [6] deals with Rattus norvegicus. Description: Inhibition of ADP-induced platelet aggregation in Sprague-Dawley rat blood at 125.3 umol/kg, po treated for 24 hrs before ADP challenge by aggregometry method. It counts as functional.
For experiment [7], the system named is Rattus norvegicus. Description: Inhibition of LPS-induced tissue factor expression in Sprague-Dawley rat PBMC at 160.2 umol/kg, po for 5 days by ELISA relative to control. The format is functional.
In experiment [8] the test system is Platelet. Description: Enhancement of nitric oxide production in human platelet rich plasma at 100 uM preincubated for 10 mins before ADP addition by DCFH-DA-based flow cytometry. It counts as functional, cell-free.
Experiment [9] can be described thus: (§2) Antiplatelet activity in human platelet rich plasma assessed as inhibition of ADP-induced aggregation compound preincubated for 10 mins before ADP addition by aggregometry method. It counts as functional, cell-free.
Experiment [10] deals with Platelet. The experiment is described as §2. It counts as functional, cell-free.
In experiment [11] the test system is Platelet. Described as §1. It counts as functional, cell-free.
For experiment [12], the system named is Rattus norvegicus. Description: Antiplatelet activity in arachidonic acid-induced platelet aggregation po dosed Sprague-Dawley rat blood compound treated for 24 hrs before ADP challenge by aggregometry method. The format is functional, organism-based.
The subject of experiment [13] is Rattus norvegicus. The experiment in a line: Antiplatelet activity in ADP-induced platelet aggregation po dosed Sprague-Dawley rat blood compound treated for 24 hrs before ADP challenge by aggregometry method. The format is functional, organism-based.

We go through 18 compounds from ChEMBL document CHEMBL1949529, “Substrate specificity of acetoxy derivatives of coumarins and quinolones towards Calreticulin mediated transacetylation: investigations on antiplatelet function” (Bioorg Med Chem, 2012).

The source made the active and inactive calls. No cut-off for these calls is given here.

In the case of `CCc1c(C)c2ccc(NC(C)=O)cc2oc1=O`, in experiment [1], the inhibition entry is “Active”.
As usually defined, the inhibition in vivo is the percentage by which the read-out fell short of the control. Lower therefore signals little suppression. For the compound `CC(=O)Oc1ccccc1C(=O)O` [ASPIRIN], the inhibition entry in the experiment on Rattus norvegicus [2] is “Active”. For the same compound, the “fold change (FC)” value in the experiment with Rattus norvegicus [3] turned out to be 0.42; in the experiment with Rattus norvegicus [7], 4.95. Also, in experiment [4], the IC50 was 80 µM. In the experiment with Rattus norvegicus [5], this compound displayed an inhibition in vivo at 50.6 µmol/kg of 55%. The inhibition result with PBMC is “inactive”. Also, the inhibition in vivo at 125.3 µmol/kg in the experiment with Rattus norvegicus [6] is 52%.
As to `CC(=O)Nc1ccc2c(C(F)(F)F)cc(=O)oc2c1`, the inhibition result in experiment [1] was “Active”.
Turning to `CCCCc1c(C)c2cc(OC(C)=O)ccc2[nH]c1=O`, in [1], the inhibition result is “Active”.
Regarding `CCCCCCCCCCc1c(C)c2cc(OC(C)=O)ccc2[nH]c1=O`, the inhibition result in experiment [1] is “Active”.
Regarding `CC(=O)Oc1ccc2c(C(F)(F)F)cc(=O)[nH]c2c1`, the inhibition result in experiment [1] is “Active”.
With `CC(=O)Nc1ccc2c(C(F)(F)F)cc(=O)[nH]c2c1`, in experiment [1], the inhibition entry was “Active”.
On the same count and under the same terms, to `CCc1c(C)c2ccc(NC(C)=O)cc2[nH]c1=O` belongs “Active”; to `CC(=O)Oc1cc2oc(=O)cc(C)c2cc1C(C)=O`, “inactive”; to `CC(=O)Nc1ccc2c(C)cc(=O)[nH]c2c1`, “Active”.
In the case of `CCc1c(C)c2ccc(OC(C)=O)c(C(C)=O)c2oc1=O`, the inhibition result in [1] is “inactive”.
On the same count and under the same terms, to `CCCCCCCCc1c(C)c2cc(OC(C)=O)ccc2[nH]c1=O` belongs “Active”; to `CCCCCCc1c(C)c2ccc(NC(C)=O)cc2oc1=O`, “Active”; to `CC(=O)Oc1ccc2c(C)cc(=O)oc2c1C(C)=O`, “inactive”.
With `CCCCCCCCCCc1c(C)c2ccc(NC(C)=O)cc2oc1=O`, the inhibition entry in [1] is “Active”.
On to `CC(=O)Oc1ccc2[nH]c(=O)cc(C(F)(F)F)c2c1`, for which, in experiment [1], the inhibition entry was “Active”.
On the same count and under the same terms, to `CCc1c(C)c2cc(C(C)=O)c(OC(C)=O)cc2oc1=O` belongs “inactive”.
For `CC(=O)Nc1ccc2c(C)cc(=O)oc2c1`, the outcome in the experiment on Platelet [8] was Active. Further, the “fold change (FC)” value in the experiment with Rattus norvegicus [2] turned out to be 3.34; with Rattus norvegicus [3] it was 0.39; in the experiment with Rattus norvegicus [7] it was 1.93. Moreover, the inhibition entry (in experiment [1]; with PBMC) was “Active” in each case. The IC50 in [9] stood at 145 µM; in experiment [4] it was 77 µM; with Rattus norvegicus [13] it was 125.3 µmol/kg. Besides, the inhibition entry in the experiment with Platelet [10] and in the experiment with Platelet [11] was “Dose-dependent effect” throughout. Moreover, the Activity result in the experiment with Rattus norvegicus [12] and in the experiment on Rattus norvegicus [13] was “Dose-dependent effect” throughout.
